# From patent US20240166596A1, “SULFAMOYL BENZENE DERIVATIVES AND USES THEREOF” (AphioTx Inc., priority 2021, published 2024)
# How the values were obtained:
# [1] = background statement; cited from earlier work
# [2] = target: T1, rPanx1 (Rattus norvegicus Pannexin-1) expressed in 293T cells (Rattus norvegicus, UniProt P60570); test: Whole-cell patch-clamp of Panx1 currents in transfected 293T cells; assay type: cell-based, Homo sapiens
# T1 construct: expressed in transfected cells; host or cells: Human embryonic kidney-293T cells (ATCC), transient Lipofectamine 2000 transfection
# Method: To further compare the effects of probenecid, Compounds 1 and 5 on Pannexin-1 channels […] Panx-1 was expressed in embryonic kidney-293T cells (293T) and channel activity was assessed at various doses of each compound.
# Rattus norvegicus Pannexin-1 (rPanx1) complementary DNA (cDNA) was cloned between BamHI and SalI sites in a pRK5 expression vector (pRK5-rPanx1). Enhanced green fluorescent protein (EGFP) plasmid (pEGFP-C1) was commercially purchased (addgene).
# Human embryonic kidney-293T cells (293T) were purchased from ATCC and routinely maintained in the laboratory. Adherent 293T cells were grown in Dulbecco's modified Eagle's medium (Thermo Fisher) supplemented with 10% fetal bovine serum (Thermo Fisher) and 1% penicillin-streptomycin (10,000 U/mL; Thermo Fisher) at 37° C. in a 5% CO2 humidified growth incubator. 293T cells between the passages 6-20 were used for experiments. For patch-clamp recordings, 293T cells reaching 40-60% confluency on 35 mm culture plates were transiently transfected using Lipofectamine 2000 (Thermo Fisher) 36-48 hours before experiments, using the manufacturer's protocol. 293T cells were transfected with 2.5 μg pRK5-rPanx1 and 0.5 μg pEGFP-C1 cDNAs at a mixed ratio of 5:1 to identify positively transfected cells.
# On the day of experiments, transiently transfected 293T cells overexpressing rPanx1 and EGFP cDNAs were seeded onto poly-d-lysine coated glass coverslips at least 2 hours before recordings. […] Data was acquired using Clampex (v.10) software and an Axon Digidata 1550A digitizer (Axon Instruments) at 10 kHz, with currents analyzed offline in Clampfit software (v.10.7). […]
# 293T cells were voltage clamped at −60 mV in whole-cell configuration and exposed to a 300 ms voltage ramp (−80 to +80 mV) before stepping back to −60 mV to record rPanx1 voltage-sensitive currents. Baseline currents were first measured in extracellular solution before perfusion of drug compounds in incrementally increasing concentrations. […]
# C57BL/6J mice [3] = test: Naloxone-precipitated morphine withdrawal, composite withdrawal score; assay type: in vivo; conditions: 50 mg/kg, 30 minutes before withdrawal
# C57BL/6J mice [4] = conditions: background statement; pharmacological blockade of Panx1; cited from earlier work
# C57BL/6J mice [5] = test: Naloxone-precipitated morphine withdrawal, composite withdrawal score; assay type: in vivo; conditions: 50 mg/kg i.p., 60 minutes prior to naloxone
# Method: Adult male C57BL/6J (7-9 weeks) mice were used. Mice were housed under 12/12 hour light/dark cycles with ad libitum access to food and water. Mice were randomly allocated to different test groups. All experiments were approved by the University of Calgary Animal Care Committee and are in accordance with the guidelines of the Canadian Council on Animal Care.
# Morphine sulfate (MS, PCCA) prepared in 0.9% sterile saline solution was injected i.p. into male C57BLJ6J (20-30g) mice. Mice received ascending doses of morphine (i.p.) at 8 hours intervals: day 1, 10mg/kg; day 2, 20 mg/kg; day 3, 30 mg/kg; day 4, 40mg/kg. On day 5, mice received a morning injection of morphine (50 mg/kg). A subset of mice received probenecid (15, 25, and 50 mg/kg i.p., Invitrogen) or Compound 1 (0.1, 0.5 and 1 mg/kg) 1 hour following morphine. Mice then received i.p. naloxone (2 mg/kg, naloxone hydrochloride dihydrate, Sigma) 2 hours following morphine to rapidly induce opioid withdrawal. Control mice received equivalent volumes of 0.9% saline or appropriate vehicle solution (0.1% DMSO in saline) and were challenged with naloxone on day 5. Withdrawal behaviors were then scored for 30 minutes post naloxone injection. Behaviors were scored for occurrence and then scaled for severity at 5-minute intervals. Behaviors that were assigned a standardized score between 0-3 depending on severity were jumping, headshakes, wet-dog shakes, chewing/licking, and teeth chattering. Behaviors that were scored 1 point for presence during a 5-minute interval include piloerection and tremors/twitching. The mice were then weighed following the 30 minutes, and the weight difference was assigned a standardized score dependent on the weight change between 0-3 as well. The scaled and present/absent signs were compiled over the 30 minutes to produce a composite withdrawal score.
# All data are presented as the mean±standard error mean (s.e.m), and each circle represents an individual animal or experiment. Tests of statistical difference were performed with GraphPad Prism 6 using either an ordinary one-way ANOVA with posthoc Dunnet test, or a two-way ANOVA with post hoc Sidak test. Sample sizes are consistent with those reported in similar studies and provide sufficient power to detect changes with the appropriate statistical analysis. For all experiments, a criterion a level was set at 0.05.
# Panx1 channel = target: T2, Panx1 channel (Mus musculus, UniProt Q9JIP4); test: YO-PRO-1 dye uptake assay in BV-2 microglia-like cells (BzATP stimulation); assay type: cell-based; conditions: BV-2 cells; pre-treatment; concentration not given
# T2 construct: endogenous in cells; host or cells: BV-2 microglia-like cells
# Method: After plating into 96 well plates, cell culture media was removed and BV-2 cells were incubated in extracellular solution (ECS) (140 mM NaCl, 4.5 mM KCl, 1.3 mM CaCl2, 10 mM HEPES, and 33 mM glucose; pH7.35, osmolarity 315 mOsm) containing YO-PRO-1 dye (2.5 μM, Invitrogen). After a 5 minute baseline recording, cells were stimulated with 3′-O-(4-benzoyl)benzoyl adenosine 5′-triphosphate (BzATP) (150 μM, Toronto Research Chemicals) and dye-uptake was recorded for 30 minutes. Cell viability was assessed immediately after the 30 minute recording by application of ionomycin (1 μM, Sigma). […] YO-PRO-1 fluorescent emission (491/509) was detected using a FilterMax F5 plate reader (Molecular Devices). Drugs used include (−)-norepinephrine (100 pM-1 μM, Sigma), probenecid (1 mM, Life Technologies), and Compound 1 (10 nM, Derksen et al). Drugs were bath applied in ECS containing YO-PRO-1 dye and incubated at 37° C. for 10 minutes prior to BzATP stimulation. Fluorescent emission at 30 minutes post-BzATP was calculated as an average of the entire imaging field as percent change from baseline, and responses at 30 minutes were averaged over multiple independent experiments. Individual traces of BV-2 YO-PRO-1 dye uptake were taken at 10 minute intervals and represent the average response of all BV-2 cells in the recorded view from a subset of experiments.
# BV-2 microglia-like cells were maintained in DMEM (Gibco) containing 5% fetal bovine serum (Gibco) and 1% penicillin-streptomycin (Gibco) with 5% CO2.
# The compounds tested were designed to more readily penetrate the blood brain barrier and were therefore predicted to require a lower dose to produce similar effects. Prior to testing the compounds in animals, the compounds were first tested in BV2 microglia-like cells using the YO-PRO-1 Dye Uptake Assay. By using this assay, Panx1 channel activity in response to BzATP stimulation of P2X7, an upstream receptor that causes Panx1 pore formation can be assessed. YO-PRO-1 is a large molecular weight dye that can only enter the cell through large pore ion channels such as Panx1, therefore its uptake correlates with Panx1 channel opening. BzATP stimulation causes a significant increase in YO-PRO-1 dye uptake in cells pre-treated with ECS and vehicle solution (0.1% DMSO) (FIG. 1, B).
# T2 sequence (Q9JIP4 whole entry): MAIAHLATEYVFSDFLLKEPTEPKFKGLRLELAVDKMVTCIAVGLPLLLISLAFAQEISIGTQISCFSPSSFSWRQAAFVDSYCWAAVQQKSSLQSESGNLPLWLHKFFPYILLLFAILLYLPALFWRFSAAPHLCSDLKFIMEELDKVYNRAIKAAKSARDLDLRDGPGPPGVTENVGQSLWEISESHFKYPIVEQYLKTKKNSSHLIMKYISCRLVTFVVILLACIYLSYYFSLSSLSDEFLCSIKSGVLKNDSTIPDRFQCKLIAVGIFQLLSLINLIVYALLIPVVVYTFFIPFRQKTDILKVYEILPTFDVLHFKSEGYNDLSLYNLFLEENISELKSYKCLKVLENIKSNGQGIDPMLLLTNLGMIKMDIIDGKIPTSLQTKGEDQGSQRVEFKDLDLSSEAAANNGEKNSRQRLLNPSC
# T1 sequence (P60570 whole entry): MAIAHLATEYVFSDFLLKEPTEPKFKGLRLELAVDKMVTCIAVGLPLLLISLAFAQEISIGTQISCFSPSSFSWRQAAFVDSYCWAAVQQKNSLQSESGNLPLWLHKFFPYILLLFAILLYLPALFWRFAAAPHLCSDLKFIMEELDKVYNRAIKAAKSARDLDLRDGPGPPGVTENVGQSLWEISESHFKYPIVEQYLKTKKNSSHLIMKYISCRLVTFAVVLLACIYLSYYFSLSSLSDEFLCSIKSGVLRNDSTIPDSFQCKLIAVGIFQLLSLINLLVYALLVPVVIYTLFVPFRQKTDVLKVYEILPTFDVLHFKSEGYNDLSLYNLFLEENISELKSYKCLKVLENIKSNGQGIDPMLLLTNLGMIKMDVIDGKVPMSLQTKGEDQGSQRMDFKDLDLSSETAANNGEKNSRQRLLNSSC
smiles,measurement,setting,value
"CCCN(CCC)S(=O)(=O)c1ccc(C(=O)O)cc1 [probenecid, reference compound]",Solubility,[1],poor solubility
same,Block of Panx1 (inhibition of transfected current),[2]; maximum doses,100%
same,Withdrawal behaviors,C57BL/6J mice [3],not effective
same,Withdrawal behaviors in mice,C57BL/6J mice [4],ameliorated withdrawal behaviors
same,Composite withdrawal score,C57BL/6J mice [5],significantly reduced withdrawal score
CCCN(CCC)S(=O)(=O)c1ccc(-c2cn[nH]c2)cc1 [Compound 5],Panx1 inhibitory potency relative to Probenecid (patch-clamp),"[2]; voltage ramp -80 to +80 mV, various doses",more potent
same,Panx1 channel activity (BzATP-stimulated YO-PRO-1 dye uptake),Panx1 channel,significantly blocked
CCCN(CCC)S(=O)(=O)c1ccc(-c2ccnc(N3CCNCC3)c2)cc1 [Compound 4],Panx1 channel activity (BzATP-stimulated YO-PRO-1 dye uptake),Panx1 channel,significantly blocked
CCCN(CCC)S(=O)(=O)c1ccc(-c2cnc(N(C)C)nc2)cc1 [Compound 6],Panx1 channel activity (BzATP-stimulated YO-PRO-1 dye uptake),Panx1 channel,significantly blocked
"CCCN(CCC)S(=O)(=O)c1ccc(-c2ccc3[nH]ncc3c2)cc1 [Compound 3, 4-(1H-indazol-5-yl)-N,N-dipropylbenzenesulfonamide]",Panx1 channel activity (BzATP-stimulated YO-PRO-1 dye uptake),Panx1 channel,significantly blocked
"CN(C)S(=O)(=O)c1ccc(C(O)(C(F)(F)F)C(F)(F)F)cc1 [Compound 2, 4-(1,1,1,3,3,3-hexafluoro-2-hydroxypropan-2-yl)-N,N-dimethylbenzenesulfonamide]",Panx1 channel activity (BzATP-stimulated YO-PRO-1 dye uptake),Panx1 channel,significantly blocked
